Several values for one entry are separate records, joined by “and”; a condition that tells them apart may be missing. Equal values may be shown once. Read-outs that look alike come from different tables or passages of the source.
How the values were obtained:
M1 muscarinic receptor [1] = target: T1, M1 muscarinic receptor (Homo sapiens, UniProt P11229); assay: R-SAT competitive antagonist assay; format: cell-based; design: expressed in transfected cells; host or cells: NIH/3T3; settings: nr = no significant antagonist or inverse agonist activity up to 1 μM, nr* = nr but significant agonist activity
T1 sequence (P11229 1-460): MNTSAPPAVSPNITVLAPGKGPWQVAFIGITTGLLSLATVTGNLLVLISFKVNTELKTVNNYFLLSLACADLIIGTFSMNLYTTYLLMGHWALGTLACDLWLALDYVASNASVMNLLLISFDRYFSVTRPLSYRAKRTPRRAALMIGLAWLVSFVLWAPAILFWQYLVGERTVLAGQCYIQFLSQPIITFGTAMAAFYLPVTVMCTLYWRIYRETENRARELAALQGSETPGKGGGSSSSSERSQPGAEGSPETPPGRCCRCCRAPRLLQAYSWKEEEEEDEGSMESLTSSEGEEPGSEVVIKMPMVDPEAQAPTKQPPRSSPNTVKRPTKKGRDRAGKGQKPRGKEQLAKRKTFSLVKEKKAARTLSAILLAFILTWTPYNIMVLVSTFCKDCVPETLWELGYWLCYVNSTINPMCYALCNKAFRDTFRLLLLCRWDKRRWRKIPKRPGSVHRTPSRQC

[2] = Pharmacokinetics after single i.v. or oral dose in rats; format: in vivo, Sprague-Dawley rats; settings: rat; for bioavailability: read-out: BA (oral bioavailability)
5-HT2C receptor = 5-HT2C receptor (Homo sapiens, UniProt P28335); assay: R-SAT competitive antagonist assay
Chain of 5-HT2C receptor (P28335 33-458): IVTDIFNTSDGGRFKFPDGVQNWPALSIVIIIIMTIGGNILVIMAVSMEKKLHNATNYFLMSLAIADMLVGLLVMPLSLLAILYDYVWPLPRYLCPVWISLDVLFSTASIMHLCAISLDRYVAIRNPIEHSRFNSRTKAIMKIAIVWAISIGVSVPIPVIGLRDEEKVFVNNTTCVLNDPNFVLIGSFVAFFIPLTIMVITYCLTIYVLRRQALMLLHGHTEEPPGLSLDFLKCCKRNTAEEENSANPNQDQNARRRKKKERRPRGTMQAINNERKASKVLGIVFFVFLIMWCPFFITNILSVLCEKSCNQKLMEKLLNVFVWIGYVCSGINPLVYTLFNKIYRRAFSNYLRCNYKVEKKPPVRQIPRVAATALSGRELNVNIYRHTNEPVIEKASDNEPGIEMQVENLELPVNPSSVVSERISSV

M1 muscarinic receptor [3] = target: T1, M1 muscarinic receptor; assay: R-SAT agonist assay; format: cell-based; design: expressed in transfected cells; host or cells: NIH/3T3
Ca^2+ channels = assay: Ligand binding screen at 10 μM
spontaneous activity = assay: Spontaneous locomotion; format: in vivo, Non-Swiss Albino (NSA) mice; settings: 10 mg/kg s.c.; maintained for 120 minutes
[4] = male, Sprague-Dawley, plasma, iv, 1 mg/kg, Plasma concentration after NDMC administration, NDMC i.v. 1 mg/kg, mean ± SD
[5] = male, Sprague-Dawley, plasma, iv, 1 mg/kg, Plasma concentration of compound measured after clozapine administration, clozapine i.v. 1 mg/kg, mean ± SD
[6] = male, Sprague-Dawley, plasma, po, 10 mg/kg, Plasma concentration after NDMC administration, NDMC p.o. 10 mg/kg, mean ± SD, two p.o. groups
[7] = male, Sprague-Dawley, plasma, po, 10 mg/kg, Plasma concentration after NDMC administration, NDMC p.o. 10 mg/kg, mean ± SD
[8] = male, Sprague-Dawley, plasma, po, 10 mg/kg, Plasma concentration of compound measured after clozapine administration, clozapine p.o. 10 mg/kg, mean ± SD
[9] = NDMC p.o. 10 mg/kg, mean ± SD, two p.o. groups, 10 mg/kg

Structure (SMILES): Clc1ccc2c(c1)N=C(N1CCNCC1)c1ccccc1N2 [NDMC, 8-chloro-11-(1-piperazinyl)-5H-dibenzo [b,e][1,4] diazepine]
- pKi M1, competitive antagonist (M1 muscarinic receptor [1]): nr*
- half-life ([2]; male, Sprague-Dawley, plasma, iv, 1 mg/kg): 39.3 min
- concentration at 10 min [2, 4]: 540 ± 46 ng/mL
- concentration at 30 min [2, 4]: 276 ± 30 ng/mL
- concentration at 60 min [2, 4]: 126 ± 38 ng/mL
- concentration at 120 min [2, 4]: 33.7 ± 11.4 ng/mL
- concentration at 180 min [2, 4]: 11.7 ± 3.8 ng/mL
- concentration at 240 min [2, 4]: 5.3 ± 0.3 ng/mL
- concentration at 30 min [2, 5]: 2.8 ± 1.2 ng/mL
- concentration at 60 min [2, 5]: 4 ± 1.5 ng/mL
- concentration at 120 min [2, 5]: 2.3 ± 1 ng/mL
- concentration at 180 min [2, 5]: 0.7 ± 0.1 ng/mL
- concentration at 240 min [2, 5]: 0.8 ± 0.6 ng/mL
- AUC ([2]; male, Sprague-Dawley, plasma, iv, 1 mg/kg, after NDMC i.v. 1 mg/kg, read-out: Average AUC (converted)): 456 ng·h/mL
- Cmax ([2]; male, Sprague-Dawley, plasma, iv, 1 mg/kg, after NDMC i.v. 1 mg/kg, read-out: Cmax): 756 ng/mL
- Tmax ([2]; male, Sprague-Dawley, plasma, iv, 1 mg/kg, after NDMC i.v. 1 mg/kg, read-out: Tmax): 0 min
- AUC ([2]; male, Sprague-Dawley, plasma, iv, 1 mg/kg, after clozapine i.v. 1 mg/kg, read-out: Average AUC of compound measured (converted)): 8.16 ng·h/mL
- Cmax ([2]; male, Sprague-Dawley, plasma, iv, 1 mg/kg, after clozapine i.v. 1 mg/kg, read-out: Cmax of compound measured): 3.99 ng/mL
- Tmax ([2]; male, Sprague-Dawley, plasma, iv, 1 mg/kg, after clozapine i.v. 1 mg/kg, read-out: Tmax of compound measured (converted)): 60 min
- Vd ([2]; male, Sprague-Dawley, plasma, iv, 1 mg/kg, read-out: Vss): 1.47 L/kg
- concentration at 10 min [2, 6]: 305 ± 101 ng/mL
- concentration at 30 min [2, 6]: 582 ± 265 ng/mL
- concentration at 60 min [2, 6]: 481 ± 181 ng/mL
- concentration at 120 min [2, 7]: 227 ± 75 ng/mL
- concentration at 180 min [2, 7]: 170 ± 26 ng/mL
- concentration at 240 min [2, 7]: 122 ± 54 ng/mL
- concentration at 120 min [2, 8]: 42.5 ± 15.1 ng/mL
- concentration at 180 min [2, 8]: 13.4 ± 2.54 ng/mL
- concentration at 240 min [2, 8]: 7.1 ± 0.5 ng/mL
- AUC ([2]; male, Sprague-Dawley, plasma, po, 10 mg/kg, after NDMC p.o. 10 mg/kg, read-out: Average AUC (converted)): 1140 ng·h/mL
- AUC ([2]; male, Sprague-Dawley, plasma, po, 10 mg/kg, after clozapine p.o. 10 mg/kg, read-out: Average AUC of compound measured (converted)): 270 ng·h/mL
- Tmax ([2]; male, Sprague-Dawley, plasma, po, 10 mg/kg, after clozapine p.o. 10 mg/kg, read-out: Tmax of compound measured (converted)): 30 min
- bioavailability ([2]; male, Sprague-Dawley, serum, oral, 10 mg/kg): ~25%
- Cmax ([2]; male, Sprague-Dawley, serum, po, 10 mg/kg, after NDMC p.o. 10 mg/kg, read-out: Cmax): 582 ng/mL
- Tmax ([2]; male, Sprague-Dawley, serum, po, 10 mg/kg, after NDMC p.o. 10 mg/kg, read-out: Tmax): ≤ 30 min
- Cmax ([2]; male, Sprague-Dawley, serum, po, 10 mg/kg, after clozapine p.o. 10 mg/kg, read-out: Cmax of compound measured): 194 ng/mL
- bioavailability ([2]; male, Sprague-Dawley, serum, po, 10 mg/kg): 25%
- Plasma concentration after NDMC administration, 10 min [2, 9]: 277 ± 57 ng/mL
- Plasma concentration after NDMC administration, 30 min [2, 9]: 576 ± 161 ng/mL
- Plasma concentration after NDMC administration, 60 min [2, 9]: 614 ± 60 ng/mL
- CLs ([2]; after NDMC i.v. 1 mg/kg): 36.2 mL/min/kg
- Ki (5-HT2C receptor): 15.8 nM
- pKi 5-HT2C, competitive antagonist (5-HT2C receptor; R-SAT, nr = no significant antagonist or inverse agonist activity up to 1 μM, nr* = nr but significant agonist activity): 7.8 ± 0.2
- Ki (M1 muscarinic receptor [3]): 50 nM
- EC50 (M1 muscarinic receptor [3]; M1 pEC50, R-SAT agonist): 55 nM and 50.1 nM
- inhibition of binding, Ca^2+ channels (Ca^2+ channels): ≥ 90%
- time of maximal reduction of spontaneous activity (spontaneous activity): 30 min

From patent US20050085463A1 (priority 2003, published 2005)
